Patent publication US10383948B2, “Anti-cMet antibody drug conjugates and methods for their use” (AbbVie Inc., priority 2016, dated 2019)

Legend:
CTG-0167 NSCL PDX = assay: Patient-derived xenograft, tumor growth delay; assay type: in vivo, NSG mice; settings: PDX CTG-0167 (NSCL); every seven days, six doses; median time to 1 cm^3 vs control
Method: (§1) Tumor fragments of 3 to 5 mm^3 at passage 3 (P3) were implanted subcutaneously in the right rear flank of NSG mice (The Jackson Laboratory) with a trochar. ABBV-399 and ABT-700 PBD were administered every seven days for a total of six doses. […] For all groups, tumor volumes were plotted only for the duration that allowed the full set of animal to remain on study. If animals had to be taken off study, the remaining animals were monitored for tumor growth until they reached defined end-points.

CTG-0796 colorectal PDX = assay: Patient-derived xenograft, tumor growth delay; assay type: in vivo, NSG mice; settings: PDX CTG-0796 (Colorectal); every seven days, six doses; median time to 1 cm^3 vs control
Method: as §1

CTG-0058 colorectal PDX = assay: Patient-derived xenograft, tumor growth delay; assay type: in vivo, NSG mice; settings: PDX CTG-0058 (Colorectal); every seven days, six doses; median time to 1 cm^3 vs control
Method: as §1

CTG-0162 NSCL PDX = assay: Patient-derived xenograft, tumor growth delay; assay type: in vivo, NSG mice; settings: PDX CTG-0162 (NSCL); every seven days, six doses; median time to 1 cm^3 vs control
Method: as §1

CTG-0382 colorectal PDX = assay: Patient-derived xenograft, tumor growth delay; assay type: in vivo, NSG mice; settings: PDX CTG-0382 (Colorectal); every seven days, six doses; median time to 1 cm^3 vs control
Method: as §1

CTG-0358 colorectal PDX = assay: Patient-derived xenograft, tumor growth delay; assay type: in vivo, NSG mice; settings: PDX CTG-0358 (Colorectal); every seven days, six doses; median time to 1 cm^3 vs control
Method: as §1

CTG-0652 colorectal PDX = assay: Patient-derived xenograft, tumor growth delay; assay type: in vivo, NSG mice; settings: PDX CTG-0652 (Colorectal); every seven days, six doses; median time to 1 cm^3 vs control
Method: as §1

CTG-0419 colorectal PDX = assay: Patient-derived xenograft, tumor growth delay; assay type: in vivo, NSG mice; settings: PDX CTG-0419 (Colorectal); every seven days, six doses; median time to 1 cm^3 vs control
Method: as §1

CTG-0178 NSCL PDX = assay: Patient-derived xenograft, tumor growth delay; assay type: in vivo, NSG mice; settings: PDX CTG-0178 (NSCL); every seven days, six doses; median time to 1 cm^3 vs control
Method: as §1

CTG-0176 NSCL PDX = assay: Patient-derived xenograft, tumor growth delay; assay type: in vivo, NSG mice; settings: PDX CTG-0176 (NSCL); every seven days, six doses; median time to 1 cm^3 vs control
Method: as §1

CTG-0084 colorectal PDX = assay: Patient-derived xenograft, tumor growth delay; assay type: in vivo, NSG mice; settings: PDX CTG-0084 (Colorectal); every seven days, six doses; median time to 1 cm^3 vs control
Method: as §1

CTG-0387 colorectal PDX = assay: Patient-derived xenograft, tumor growth delay; assay type: in vivo, NSG mice; settings: PDX CTG-0387 (Colorectal); every seven days, six doses; median time to 1 cm^3 vs control
Method: as §1

CTG-0117 colorectal PDX = assay: Patient-derived xenograft, tumor growth delay; assay type: in vivo, NSG mice; settings: PDX CTG-0117 (Colorectal); every seven days, six doses; median time to 1 cm^3 vs control
Method: as §1

[1] = test system: NHBE (normal bronchial epithelial); assay: Cytotoxicity assay (CellTiter-Glo, 6 days); assay type: cell-based; settings: NHBE (bronchial epithelial) non-tumor; relative to untreated control at ≤1 μg/mL in a six day proliferation
Method: (§2) Tumor cells were plated at 2000-5000 cells/well in 180 μL growth medium containing 10% FBS in 96-well plates, and cultured at 37° C. in a humidified incubator with 5% C02. The following day, titrations of antibodies or ADCs in 20 μL were added and cells were incubated for 6 days. Cell viability was determined using a CellTiter-Glo Luminescent Cell Viability Assay (Promega) according to the manufacturer's instructions. A non-binding, irrelevant negative control ADC conjugated to MMAE was also included in all assays to confirm that cell killing was antigen dependent.
as §2, with “of” for “of antibodies or”, “antigen-dependent.” for “antigen dependent.”

NCI-H820 = assay: Cytotoxicity assay (CellTiter-Glo, 6 days); assay type: cell-based, human; settings: NCI-H820 lung cancer; relative to untreated control at ≤1 μg/mL in a six day proliferation
Method: as §2, with “instructions.” for “instructions. A non-binding, irrelevant negative control ADC conjugated to MMAE was also included in all assays to confirm that cell killing was antigen dependent.”
as §2, with “of” for “of antibodies or”, “instructions.” for “instructions. A non-binding, irrelevant negative control ADC conjugated to MMAE was also included in all assays to confirm that cell killing was antigen dependent.”

[2] = test system: EBC-1 ABT-700R xenograft tumors; assay: ABT-700-refractory xenograft efficacy; assay type: in vivo, mice; settings: EBC-1, ABT-700 followed by ABBV-399; FIG. 12C

**Q.** With “ABBV-399: ADC comprised of the cMet targeting antibody ABT-700 conjugated to MMAE through a valine citrulline (vc) linker” as the substance, how does the “TGD (%) tumor growth delay” value (CTG-0167 NSCL PDX) read?
**A.** 0%

**Q.** What about the “TGD (%) tumor growth delay” value (CTG-0796 colorectal PDX) of the same substance?
**A.** 78%

**Q.** And the “TGD (%) tumor growth delay” value (CTG-0058 colorectal PDX)?
**A.** 71%

**Q.** And the “TGD (%) tumor growth delay” value (CTG-0162 NSCL PDX)?
**A.** 88%

**Q.** What about the “TGD (%) tumor growth delay” value (CTG-0382 colorectal PDX) of the same substance?
**A.** 126%

**Q.** What about the “TGD (%) tumor growth delay” value (CTG-0358 colorectal PDX) of the same substance?
**A.** 94%

**Q.** What about the “TGD (%) tumor growth delay” value (CTG-0652 colorectal PDX) of the same substance?
**A.** 350%

**Q.** And the “TGD (%) tumor growth delay” value (CTG-0419 colorectal PDX)?
**A.** 54%

**Q.** And the “TGD (%) tumor growth delay” value (CTG-0178 NSCL PDX)?
**A.** 0%

**Q.** What about the “TGD (%) tumor growth delay” value (CTG-0176 NSCL PDX) of the same substance?
**A.** 71%

**Q.** What about the “TGD (%) tumor growth delay” value (CTG-0084 colorectal PDX) of the same substance?
**A.** 0%

**Q.** And the “TGD (%) tumor growth delay” value (CTG-0387 colorectal PDX)?
**A.** 0%

**Q.** What about the “TGD (%) tumor growth delay” value (CTG-0117 colorectal PDX) of the same substance?
**A.** 0%

**Q.** And the “Maximal Killing” value [1]?
**A.** 10%

**Q.** And the “Maximal Killing” value (NCI-H820)?
**A.** 87%

**Q.** What about the “tumor response” value [2] of the same substance?
**A.** remained sensitive
